Tests used:
[1] = tested on: LARGE CRABGRASS; assay: Test F; assay type: in vivo, Digitaria sanguinalis
Description: (§1) Weed species were planted 3 or 4 per 15-cm diameter pot in Sassafras sandy loam (pH 6.8; 1% OM). Cotton was planted separately in the same sized pot. Postemergence plantings were made 12-16 days prior to treating so plants were in the 2- to 3-leaf stage (5-12 cm tall). Preemergence plantings were made the day before treating. Compounds were sprayed in a suitable non-phytotoxic solvent at 374 l/ha, then after 3 weeks of growth in a greenhouse, plant responses were visually rated on a percent scale where 0=no injury and 100=plant death.

[2] = tested on: FALL PANICUM; assay: Test F; assay type: in vivo, Panicum dichotomiflorum
Description: as §1

[3] = tested on: GROUND CHERRY; assay: Test F; assay type: in vivo, Physalis heterophylla
Description: as §1

[4] = tested on: BRDLF SNGLGRASS; assay: Test F; assay type: in vivo, Brachiaria platyphylla
Description: as §1

[5] = tested on: REDROOT PIGWEED; assay: Test F; assay type: in vivo, Amaranthus retroflexus
Description: as §1

[6] = tested on: COCKLEBUR; assay: Test F; assay type: in vivo, Xanthium pensylvanicum
Description: as §1

[7] = tested on: SICKLEPOD; assay: Test F; assay type: in vivo, Cassia obtusifolia
Description: as §1

[8] = tested on: GOOSEGRASS; assay: Test F; assay type: in vivo, Eleusine indica
Description: as §1

[9] = tested on: PURPLE NUTSEDGE; assay: Test F; assay type: in vivo, Cyperus rotundus
Description: as §1

[10] = tested on: VELVETLEAF; assay: Test F; assay type: in vivo, Abutilon theophrasti
Description: as §1

[11] = tested on: LADY SMARTWEED; assay: Test E; assay type: in vivo, Polygonum persicaria
Description: Seeds of the following crops and weeds are sown into 15 cm pots containing Sassafras sandy loam soil: wheat (Triticum aestivum cv. Park), barley (Hordeum vulgare cv. Bonanza), sugarbeet (Beta vulgaris cv. USH-11), rapeseed (Brassica napus cv. Jet Neuf), black nightshade (Solanum nigrum), chickweed (Stellaria media), lambsquarter (Chenopodium album), Galium aparine, knotweed (Polygonum aviculare), Kochia scoparia, Matricaria indora, redroot pigweed (Amaranthus retroflexus), smartweed (Polygonum persicaria), speedwell (Veronica persica), wild buckwheat (Polygonum convolvulus), wild mustard (Brassica spp.), wild radish (Raphanus raphanistrum), annual bluegrass (PO annua), annual ryegrass (Lolium multiflorum), blackgrass (Alopercurus mysuroides), green foxtail (Setaria viridis), and wild oats (Avena fatua). Compounds are formulated in a nonphytotoxic solvent and applied to the plants as a foliar spray or applied to the soil surface. Plants are treated at two stages: preemergence, or postemergence when the sugarbeets are at the 2-3 true leaf stage. Plants are grown in a temperature-controlled greenhouse for the duration of the test.
Weed control and crop injury are evaluated visually at 3-4 weeks after compound application, using a scale of 0 to 100%, where 0=no injury and 100=complete death of the plant. All plants are rated with respect to untreated plants (checks) grown in the greenhouse under identical conditions to the treated plants.

[12] = tested on: IVY MORNINGGLORY; assay: Test F; assay type: in vivo, Ipomoea hederacea
Description: as §1

[13] = tested on: PRICKLY SIDA; assay: Test F; assay type: in vivo, Sida spinosa
Description: as §1

[14] = tested on: LADY SMARTWEED; assay: Test F; assay type: in vivo, Polygonum persicaria
Description: as §1

[15] = tested on: JOHNSONGRASS; assay: Test D; assay type: in vivo, Sorghum halepense

Measured: plant response

C=C(c1ccc(F)cc1)C(O)(Cn1cncn1)c1ccc(F)cc1F (stereo not shown) [Example 4, 2-(2,4-Difluorophenyl)-3-(4-fluorophenyl)-1-(1H-1,2,4-triazol-1-yl)-3-buten-2-ol]
90%: [2]; PREEMERGENCE 0032 GM/HA | [2]; PREEMERGENCE 0064 GM/HA | [2]; PREEMERGENCE 0125 GM/HA | [13]; PREEMERGENCE 0500 GM/HA
70%: [5]; PREEMERGENCE 0064 GM/HA
60%: [5]; PREEMERGENCE 0125 GM/HA
80%: [8]; PREEMERGENCE 0032 GM/HA | [8]; PREEMERGENCE 0064 GM/HA
0%: [1]; PREEMERGENCE 0032 GM/HA | [3]; PREEMERGENCE 0032 GM/HA | [3]; PREEMERGENCE 0064 GM/HA | [3]; PREEMERGENCE 0125 GM/HA | [3]; PREEMERGENCE 0250 GM/HA | [3]; PREEMERGENCE 0500 GM/HA | [4]; PREEMERGENCE 0032 GM/HA | [4]; PREEMERGENCE 0064 GM/HA | [4]; PREEMERGENCE 0125 GM/HA | [4]; PREEMERGENCE 0250 GM/HA | [6]; PREEMERGENCE 0032 GM/HA | [6]; PREEMERGENCE 0064 GM/HA | [6]; PREEMERGENCE 0125 GM/HA | [6]; PREEMERGENCE 0250 GM/HA | [6]; PREEMERGENCE 0500 GM/HA | [7]; PREEMERGENCE 0032 GM/HA | [7]; PREEMERGENCE 0064 GM/HA | [7]; PREEMERGENCE 0125 GM/HA | [7]; PREEMERGENCE 0250 GM/HA | [7]; PREEMERGENCE 0500 GM/HA | [9]; PREEMERGENCE 0032 GM/HA | [9]; PREEMERGENCE 0064 GM/HA | [9]; PREEMERGENCE 0125 GM/HA | [9]; PREEMERGENCE 0250 GM/HA | [9]; PREEMERGENCE 0500 GM/HA | [10]; PREEMERGENCE 0032 GM/HA | [10]; PREEMERGENCE 0064 GM/HA | [10]; PREEMERGENCE 0125 GM/HA | [10]; PREEMERGENCE 0250 GM/HA | [12]; PREEMERGENCE 0032 GM/HA | [12]; PREEMERGENCE 0064 GM/HA | [12]; PREEMERGENCE 0125 GM/HA | [12]; PREEMERGENCE 0250 GM/HA | [12]; PREEMERGENCE 0500 GM/HA | [13]; PREEMERGENCE 0032 GM/HA | [13]; PREEMERGENCE 0064 GM/HA | [13]; PREEMERGENCE 0125 GM/HA | [14]; PREEMERGENCE 0032 GM/HA | [14]; PREEMERGENCE 0064 GM/HA | [14]; PREEMERGENCE 0125 GM/HA
20%: [1]; PREEMERGENCE 0064 GM/HA | [14]; PREEMERGENCE 0250 GM/HA | [14]; PREEMERGENCE 0500 GM/HA
30%: [4]; PREEMERGENCE 0500 GM/HA | [10]; PREEMERGENCE 0500 GM/HA
100%: [1]; PREEMERGENCE 0125 GM/HA | [1]; PREEMERGENCE 0250 GM/HA | [1]; PREEMERGENCE 0500 GM/HA | [2]; PREEMERGENCE 0250 GM/HA | [2]; PREEMERGENCE 0500 GM/HA | [5]; PREEMERGENCE 0250 GM/HA | [5]; PREEMERGENCE 0500 GM/HA | [8]; PREEMERGENCE 0125 GM/HA | [8]; PREEMERGENCE 0250 GM/HA | [8]; PREEMERGENCE 0500 GM/HA | [11]; PREEMERGENCE 0500 GM/HA | [13]; PREEMERGENCE 0250 GM/HA
50%: [5]; PREEMERGENCE 0032 GM/HA

C=C(c1ccccc1Cl)C(O)(Cn1cncn1)c1ccc(Cl)cc1Cl (stereo not shown) [Example 33, 2-(2,4-Dichlorophenyl)-3-(2-chlorophenyl)-1-(1H-1,2,4-triazol-1-yl)-3-buten-2-ol]
0%: [15]; POSTEMERGENCE 0250 GM/HA | [15]; POSTEMERGENCE 0500 GM/HA | [15]; POSTEMERGENCE 1000 GM/HA | [15]; PREEMERGENCE 0250 GM/HA | [15]; PREEMERGENCE 0500 GM/HA | [15]; PREEMERGENCE 1000 GM/HA

C=C(c1ccccc1Cl)C(O)(Cn1cncn1)c1ccc(F)cc1F (stereo not shown) [Example 35]
50%: [15]; POSTEMERGENCE 0500 GM/HA
30%: [15]; PREEMERGENCE 0064 GM/HA | [15]; PREEMERGENCE 0125 GM/HA
100%: [15]; PREEMERGENCE 0250 GM/HA | [15]; PREEMERGENCE 0500 GM/HA
0%: [15]; POSTEMERGENCE 0250 GM/HA

C=C(c1ccccc1)C(O)(Cn1cncn1)c1ccc(Cl)cc1Cl (stereo not shown) [Example 50, 2-(2,4-Dichlorophenyl)-3-phenyl-1-(1H-1,2,4-triazol-1-yl)-3-buten-2-ol]
95%: [15]; PREEMERGENCE 0500 GM/HA
35%: [15]; PREEMERGENCE 0064 GM/HA
90%: [15]; PREEMERGENCE 0250 GM/HA
70%: [15]; PREEMERGENCE 0125 GM/HA
20%: [15]; POSTEMERGENCE 0250 GM/HA
40%: [15]; POSTEMERGENCE 0500 GM/HA

C=C(c1ccc(F)cc1)C(O)(Cn1cncn1)c1ccccc1F (stereo not shown) [Example 644]
0%: [11]; POSTEMERGENCE 0064 GM/HA
100%: [11]; POSTEMERGENCE 0125 GM/HA | [11]; POSTEMERGENCE 0250 GM/HA | [11]; POSTEMERGENCE 0500 GM/HA

Source: patent US4965280A, “Antifungal carbinols” (E. I. Du Pont de Nemours and Company, priority 1989, dated 1990)
